Results taken from US6737383B1, “Herbicidal oxadiazolidines” (priority 1999, dated 2004).

Assays:
wild oat = test: Test B pre/postemergence wild oat; format: in vivo, Avena fatua
Summary of the method: (§1)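 Test chemicals in a non-phytotoxic solvent mixture with surfactant were sprayed preemergence onto planted seeds and postemergence onto plants 2 to 18 cm tall (1- to 4-leaf stage). After twelve to sixteen days in a greenhouse, injury was visually rated against untreated controls from 0 (no effect) to 10 (complete control).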

purple nutsedge = test: Test B pre/postemergence purple nutsedge; format: in vivo, Cyperus rotundus
Summary of the method: as §1

surinam grass = test: Test B pre/postemergence surinam grass; format: in vivo, Brachiaria decumbens
Summary of the method: as §1

sugar beet = test: Test B pre/postemergence sugar beet; format: in vivo, Beta vulgaris
Summary of the method: as §1

rape = test: Test B pre/postemergence rape; format: in vivo, Brassica napus
Summary of the method: as §1

corn = test: Test B pre/postemergence corn; format: in vivo, Zea mays
Summary of the method: as §1

pigweed = test: Test B pre/postemergence pigweed; format: in vivo, Amaranthus retroflexus
Summary of the method: as §1

wheat = test: Test B pre/postemergence wheat; format: in vivo, Triticum aestivum
Summary of the method: as §1

crabgrass = test: Test B pre/postemergence crabgrass; format: in vivo, Digitaria sanguinalis
Summary of the method: as §1

morningglory = test: Test B pre/postemergence morningglory; format: in vivo, Ipomoea hederacea
Summary of the method: as §1

duck salad = test: Test B flood test duck salad; format: in vivo, Heteranthera limosa
Summary of the method: (§2)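 Read-out is a visual response score from 0 (no effect) to 10 (complete control), assigned by comparison with untreated controls. Treatment was applied at the 2-leaf stage, and plants stayed in the greenhouse for twelve to sixteen days before scoring.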

giant foxtail = test: Test B pre/postemergence giant foxtail; format: in vivo, Setaria faberii
Summary of the method: as §1

blackgrass = test: Test B pre/postemergence blackgrass; format: in vivo, Alopecurus myosuroides
Summary of the method: as §1

bamyardgrass = test: Test B flood test barnyardgrass; format: in vivo, Echinochloa crus-galli
Summary of the method: as §2

soybean = test: Test B pre/postemergence soybean; format: in vivo, Glycine max
Summary of the method: as §1

smallflower flatsedge = test: Test B flood test smallflower flatsedge; format: in vivo, Cyperus difformis
Summary of the method: as §2

rice = test: Test B flood test rice; format: in vivo, Oryza sativa
Summary of the method: as §2

velvetleaf = test: Test B pre/postemergence velvetleaf; format: in vivo, Abutilon theophrasti
Summary of the method: as §1

bedstraw = test: Test B pre/postemergence bedstraw; format: in vivo, Galium aparine; settings: Preemergence
Summary of the method: as §1

cocklebur = test: Test B pre/postemergence cocklebur; format: in vivo, Xanthium strumarium
Summary of the method: as §1

[1] = Postemergence, Rate 125 g/ha, scale of 0 to 10 where 0 is no effect and 10 is complete control
[2] = Postemergence, Rate 250 g/ha, scale of 0 to 10, 0 is no effect, 10 is complete control
[3] = Postemergence, Rate 500 g/ha, scale of 0 to 10 where 0 is no effect and 10 is complete control
[4] = Preemergence, Rate 62 g/ha, scale 0 to 10 (0 no effect, 10 complete control)
[5] = Preemergence, Rate 125 g/ha, scale of 0 to 10 where 0 is no effect and 10 is complete control
[6] = Preemergence, Rate 500 g/ha, scale of 0 to 10 where 0 is no effect and 10 is complete control
[7] = Postemergence, Rate 62 g/ha, scale of 0 to 10, 0 is no effect, 10 is complete control
[8] = Rate 62 g/ha, flood test species, Pre-emergence, visual evaluation after twelve to sixteen days
[9] = Rate 125 g/ha, under heading Pre-emergence, flood test species, visual evaluation after twelve to sixteen days
[10] = Rate 250 g/ha, Pre-emergence (flood test species), scale 0 to 10, 0 is no effect, 10 is complete control
[11] = Rate 500 g/ha, Pre-emergence section of Table B, 0 to 10 scale (0 no effect, 10 complete control)

SMILES: COC(C)n1c(=O)on(C(=O)N(c2ccc(Cl)cc2)C(C)C)c1=O (stereo not shown) [Compound 592]
- Plant response rating, Wild oats (wild oat; [1]): 0
- Wild oats plant response rating (wild oat; [2]): 0
- Plant response rating, Wild oats (wild oat; [3]): 0
- Wild oats plant response rating (wild oat; [4]): 0
- Wild oats plant response rating (wild oat; [5]): 0
- Plant response rating, Wild oats (wild oat; [6]): 0
- Nutsedge plant response rating (purple nutsedge; [7]): 0
- Plant response rating, Nutsedge (purple nutsedge; [1]): 0
- Nutsedge plant response rating (purple nutsedge; [2]): 0
- Plant response rating, Nutsedge (purple nutsedge; [3]): 0
- Nutsedge plant response rating (purple nutsedge; [4]): 0
- Nutsedge plant response rating (purple nutsedge; [5]): 0
- Plant response rating, Nutsedge (purple nutsedge; [6]): 0
- B. signalgrass plant response rating (surinam grass; [7]): 0
- Plant response rating, B. signalgrass (surinam grass; [1]): 0
- B. signalgrass plant response rating (surinam grass; [2]): 0
- Plant response rating, B. signalgrass (surinam grass; [3]): 0
- B. signalgrass plant response rating (surinam grass; [4]): 0
- B. signalgrass plant response rating (surinam grass; [5]): 0
- B. signalgrass plant response rating (0 to 10 scale, 0 is no effect, 10 is complete control) (surinam grass; Preemergence, Rate 250 g/ha): 0
- B. signalgrass plant response rating (surinam grass; [6]): 0
- Plant response rating, Sugarbeets (sugar beet; [1]): 0
- Sugarbeets plant response rating (sugar beet; [2]): 0
- Plant response rating, Sugarbeets (sugar beet; [3]): 0
- Sugarbeets plant response rating (sugar beet; [4]): 0
- Sugarbeets plant response rating (sugar beet; [5]): 0
- Plant response rating, Sugarbeets (sugar beet; [6]): 0
- Rape plant response rating (rape; [7]): 0
- Plant response rating, Rape (rape; [1]): 0
- Rape plant response rating (rape; [2]): 0
- Plant response rating, Rape (rape; [3]): 0
- Rape plant response rating (rape; [4]): 0
- Rape plant response rating (rape; [5]): 0
- Plant response rating, Rape (rape; [6]): 0
- Corn plant response rating (corn; [7]): 0
- Plant response rating, Corn (corn; [1]): 0
- Corn plant response rating (corn; [2]): 0
- Plant response rating, Corn (corn; [3]): 0
- Corn plant response rating (corn; [4]): 0
- Corn plant response rating (corn; [5]): 0
- Corn plant response rating (0 to 10 scale) (corn; Preemergence, Rate 250 g/ha): 0
- Plant response rating, Corn (corn; [6]): 0
- Plant response rating, Redroot pigweed (pigweed; [1]): 0
- Redroot pigweed plant response rating (pigweed; [2]): 0
- Plant response rating, Redroot pigweed (pigweed; [3]): 0
- Redroot pigweed plant response rating (pigweed; [4]): 0
- Redroot pigweed plant response rating (pigweed; [5]): 0
- Plant response rating, Redroot pigweed (pigweed; [6]): 0
- Plant response rating, Wheat (wheat; [1]): 0
- Wheat plant response rating (wheat; [2]): 0
- Plant response rating, Wheat (wheat; [3]): 0
- Wheat plant response rating (wheat; [4]): 0
- Wheat plant response rating (wheat; [5]): 0
- Plant response rating, Wheat (wheat; [6]): 0
- Crabgrass plant response rating (crabgrass; [7]): 0
- Plant response rating, Crabgrass (crabgrass; [1]): 0
- Crabgrass plant response rating (crabgrass; [2]): 0
- Plant response rating, Crabgrass (crabgrass; [3]): 2
- Crabgrass plant response rating (crabgrass; [4]): 0
- Crabgrass plant response rating (crabgrass; [5]): 0
- Plant response rating, Crabgrass (crabgrass; [6]): 2
- Morningglory plant response rating (morningglory; [7]): 1
- Plant response rating, Morningglory (morningglory; [1]): 1
- Morningglory plant response rating (morningglory; [2]): 2
- Plant response rating, Morningglory (morningglory; [3]): 2
- Morningglory plant response rating (morningglory; [4]): 0
- Morningglory plant response rating (morningglory; [5]): 0
- Plant response rating, Morningglory (morningglory; [6]): 0
- Plant response rating, Ducksalad (0 to 10 scale, 0 is no effect, 10 is complete control) (duck salad; [8]): 0
- Ducksalad plant response rating (0 to 10 scale, 0 is no effect, 10 is complete control) (duck salad; [9]): 0
- Ducksalad plant response rating (duck salad; [10]): 0
- Ducksalad plant response rating (duck salad; [11]): 0
- Giant foxtail plant response rating (giant foxtail; [7]): 0
- Plant response rating, Giant foxtail (giant foxtail; [1]): 0
- Giant foxtail plant response rating (giant foxtail; [2]): 0
- Plant response rating, Giant foxtail (giant foxtail; [3]): 0
- Giant foxtail plant response rating (giant foxtail; [4]): 0
- Giant foxtail plant response rating (giant foxtail; [5]): 0
- Plant response rating, Giant foxtail (giant foxtail; [6]): 0
- Blackgrass plant response rating (blackgrass; [7]): 0
- Plant response rating, Blackgrass (blackgrass; [1]): 0
- Blackgrass plant response rating (blackgrass; [2]): 0
- Plant response rating, Blackgrass (blackgrass; [3]): 0
- Blackgrass plant response rating (blackgrass; [4]): 0
- Blackgrass plant response rating (blackgrass; [5]): 0
- Blackgrass plant response rating (0 to 10 scale) (blackgrass; Preemergence, Rate 250 g/ha): 0
- Blackgrass plant response rating (blackgrass; [6]): 0
- Plant response rating, Barnyardgrass (0 to 10 scale, 0 is no effect, 10 is complete control) (bamyardgrass; [8]): 0
- Barnyardgrass plant response rating (0 to 10 scale, 0 is no effect, 10 is complete control) (bamyardgrass; [9]): 0
- Barnyardgrass plant response rating (bamyardgrass; [10]): 0
- Barnyardgrass plant response rating (bamyardgrass; [11]): 0
- Plant response rating, Soybean (soybean; [1]): 1
- Soybean plant response rating (soybean; [2]): 1
- Plant response rating, Soybean (soybean; [3]): 1
- Soybean plant response rating (soybean; [4]): 0
- Soybean plant response rating (soybean; [5]): 0
- Plant response rating, Soybean (soybean; [6]): 0
- Plant response rating, S. Flatsedge (0 to 10 scale, 0 is no effect, 10 is complete control) (smallflower flatsedge; [8]): 0
- S. Flatsedge plant response rating (0 to 10 scale, 0 is no effect, 10 is complete control) (smallflower flatsedge; [9]): 0
- S. Flatsedge plant response rating (smallflower flatsedge; [10]): 0
- S. Flatsedge plant response rating (smallflower flatsedge; [11]): 0
- Plant response rating, Rice (0 to 10 scale, 0 is no effect, 10 is complete control) (rice; [8]): 0
- Rice plant response rating (0 to 10 scale, 0 is no effect, 10 is complete control) (rice; [9]): 0
- Rice plant response rating (rice; [10]): 0
- Rice plant response rating (rice; [11]): 0
- Plant response rating, Velvetleaf (velvetleaf; [1]): 0
- Velvetleaf plant response rating (velvetleaf; [2]): 0
- Plant response rating, Velvetleaf (velvetleaf; [3]): 0
- Velvetleaf plant response rating (velvetleaf; [4]): 0
- Velvetleaf plant response rating (velvetleaf; [5]): 0
- Plant response rating, Velvetleaf (velvetleaf; [6]): 0
- Bedstraw plant response rating (bedstraw; Rate 62 g/ha, scale 0 to 10 (0 no effect, 10 complete control)): 0
- Bedstraw plant response rating (bedstraw; Rate 125 g/ha, scale of 0 to 10 where 0 is no effect and 10 is complete control): 0
- Cocklebur plant response rating (cocklebur; [7]): 0
- Plant response rating, Cocklebur (cocklebur; [1]): 0
- Cocklebur plant response rating (cocklebur; [2]): 0
- Plant response rating, Cocklebur (cocklebur; [3]): 0
- Cocklebur plant response rating (cocklebur; [4]): 0
- Cocklebur plant response rating (cocklebur; [5]): 0
- Cocklebur plant response rating (0 to 10 scale) (cocklebur; Preemergence, Rate 250 g/ha): 0
- Plant response rating, Cocklebur (cocklebur; [6]): 0
